Reference: patent publication US20260130395A1, “Water Dispersible Botanical Compositions” (Aquila Black Limited, priority 2021, published 2026)

Key:
[1] = Stability of cannabinoid compounds and Vitamin E components in Beverage 1 (AB White) by LCMSMS; format: physicochemical
[2] = Stability of Nanoemulsion Concentrate 3 (α-tocopherol and Vitamin B12 content) by LCMSMS; format: physicochemical; settings: for Stability of α-tocopherol in Nanoemulsion Concentrate 3: average of triplicate
Protocol: At each time period (0, 7, 28, 60, 120, 150 and 180 days), triplicate samples were analysed for content of α-tocopherol and Vitamin B12.
(FIGS. 14 and 15, Table 13). Data reported in Table 13 and plotted in FIGS. 14 and 15 are average values of the triplicate measurements taken.

With `Cc1c(C)c2c(c(C)c1O)CC[C@@](C)(CCC[C@H](C)CCC[C@H](C)CCCC(C)C)O2` [α-Tocopherol] the “Stability of Vitamin Es in AB White” value ([1]; stored at 8° C., 0 days) was 26.1 µg/mL, the “Stability of Vitamin Es in AB White” value ([1]; stored at 8° C., 1 days) was 24.90 µg/mL and the “Stability of Vitamin Es in AB White” value ([1]; stored at 8° C., 2 days) was 23.46 µg/mL. The “Stability of Vitamin Es in AB White” value ([1]; stored at 8° C., 3 days) was 23.21 µg/mL, the “Stability of Vitamin Es in AB White” value ([1]; stored at 8° C., 5 days) was 23.39 µg/mL and the “Stability of Vitamin Es in AB White” value ([1]; stored at 8° C., 8 days) was 24.65 µg/mL. For the same molecule, the “Stability of Vitamin Es in AB White” value ([1]; stored at 8° C., 9 days) was 24.42 µg/mL, the “Stability of Vitamin Es in AB White” value ([1]; stored at 8° C., 10 days) was 24.57 µg/mL and the “Stability of Vitamin Es in AB White” value ([1]; stored at 8° C., 11 days) was 25.45 µg/mL. For the same molecule, the “Stability of Vitamin Es in AB White” value ([1]; stored at 8° C., 12 days) was 23.97 µg/mL, the “Stability of Vitamin Es in AB White” value ([1]; stored at 8° C., 15 days) was 25.48 µg/mL and the “Stability of Vitamin Es in AB White” value ([1]; stored at 8° C., 16 days) was 25.02 µg/mL. For the same molecule, the “Stability of Vitamin Es in AB White” value ([1]; stored at 8° C., 17 days) was 24.17 µg/mL, the “Stability of Vitamin Es in AB White” value ([1]; stored at 8° C., 18 days) was 23.28 µg/mL and the “Stability of Vitamin Es in AB White” value ([1]; stored at 8° C., 19 days) was 24.12 µg/mL. The “Stability of Vitamin Es in AB White” value ([1]; stored at 8° C., 22 days) was 23.51 µg/mL, the “Stability of Vitamin Es in AB White” value ([1]; stored at 8° C., 23 days) was 24.27 µg/mL and the “Stability of Vitamin Es in AB White” value ([1]; stored at 8° C., 24 days) was 24.72 µg/mL. For the same molecule, the “Stability of Vitamin Es in AB White” value ([1]; stored at 8° C., 25 days) was 25.28 µg/mL, the “Stability of Vitamin Es in AB White” value ([1]; stored at 8° C., 26 days) was 25.25 µg/mL and the “Stability of Vitamin Es in AB White” value ([1]; stored at 8° C., 29 days) was 24.87 µg/mL. The “Stability of Vitamin Es in AB White” value ([1]; stored at 8° C., 30 days) was 23.64 µg/mL, the “Stability of Vitamin Es in AB White” value ([1]; stored at 8° C., 60 days) was 22.96 µg/mL and the “Stability of Vitamin Es in AB White” value ([1]; stored at 8° C., 90 days) was 24.27 µg/mL. The “Stability of Vitamin Es in AB White” value ([1]; stored at 8° C., 120 days) was 23.01 µg/mL, the “Stability of Vitamin Es in AB White” value ([1]; stored at 8° C., 150 days) was 24.32 µg/mL and the “Stability of Vitamin Es in AB White” value ([1]; stored at 8° C., 180 days) was 24.54 µg/mL. For the same molecule, the “Stability of Vitamin Es in AB White” value ([1]; stored at 8° C., 210 days) was 23.71 µg/mL, the “Stability of Vitamin Es in AB White” value ([1]; stored at 8° C., 240 days) was 22.68 µg/mL and the “Stability of Vitamin Es in AB White” value ([1]; stored at 8° C., 270 days) was 22.68 µg/mL. For the same molecule, the “Stability of Vitamin Es in AB White” value ([1]; stored at 8° C., 300 days) was 22.76 µg/mL, the “Stability of Vitamin Es in AB White” value ([1]; stored at 8° C., 330 days) was 23.21 µg/mL and the “Stability of Vitamin Es in AB White” value ([1]; stored at 8° C., 360 days) was 22.25 µg/mL. For the same molecule, the “Stability of Vitamin Es in AB White” value ([1]; stored at 8° C., 390 days) was 22.45 µg/mL, the “Stability of Vitamin Es in AB White” value ([1]; stored at 8° C., 420 days) was 22.35 µg/mL and the “Stability of Vitamin Es in AB White” value ([1]; stored at 8° C., 450 days) was 22.88 µg/mL. For the same molecule, the “Stability of Vitamin Es in AB White” value ([1]; stored at 8° C., 480 days) was 22.05 µg/mL, the “Stability of Vitamin Es in AB White” value ([1]; stored at 8° C., 510 days) was 21.32 µg/mL and the “Stability of Vitamin Es in AB White” value ([1]; stored at 8° C., 540 days) was 21.72 µg/mL. For the same molecule, the “Stability of Vitamin Es in AB White” value ([1]; stored at 8° C., 570 days) was 22.00 µg/mL, the “Stability of Vitamin Es in AB White” value ([1]; stored at 21-25° C., 0 days) was 26.1 µg/mL and the “Stability of Vitamin Es in AB White” value ([1]; stored at 21-25° C., 1 days) was 25.1 µg/mL. The “Stability of Vitamin Es in AB White” value ([1]; stored at 21-25° C., 2 days) was 25.5 µg/mL, the “Stability of Vitamin Es in AB White” value ([1]; stored at 21-25° C., 3 days) was 25.8 µg/mL and the “Stability of Vitamin Es in AB White” value ([1]; stored at 21-25° C., 5 days) was 25.4 µg/mL. For the same molecule, the “Stability of Vitamin Es in AB White” value ([1]; stored at 21-25° C., 8 days) was 23.9 µg/mL, the “Stability of Vitamin Es in AB White” value ([1]; stored at 21-25° C., 9 days) was 25.3 µg/mL and the “Stability of Vitamin Es in AB White” value ([1]; stored at 21-25° C., 10 days) was 26.3 µg/mL. For the same molecule, the “Stability of Vitamin Es in AB White” value ([1]; stored at 21-25° C., 11 days) was 26.0 µg/mL, the “Stability of Vitamin Es in AB White” value ([1]; stored at 21-25° C., 12 days) was 24.6 µg/mL and the “Stability of Vitamin Es in AB White” value ([1]; stored at 21-25° C., 15 days) was 23.9 µg/mL. The “Stability of Vitamin Es in AB White” value ([1]; stored at 21-25° C., 16 days) was 24.2 µg/mL, the “Stability of Vitamin Es in AB White” value ([1]; stored at 21-25° C., 17 days) was 26.2 µg/mL and the “Stability of Vitamin Es in AB White” value ([1]; stored at 21-25° C., 18 days) was 25.3 µg/mL. The “Stability of Vitamin Es in AB White” value ([1]; stored at 21-25° C., 19 days) was 23.8 µg/mL, the “Stability of Vitamin Es in AB White” value ([1]; stored at 21-25° C., 22 days) was 25.7 µg/mL and the “Stability of Vitamin Es in AB White” value ([1]; stored at 21-25° C., 23 days) was 23.8 µg/mL. For the same molecule, the “Stability of Vitamin Es in AB White” value ([1]; stored at 21-25° C., 24 days) was 25.8 µg/mL, the “Stability of Vitamin Es in AB White” value ([1]; stored at 21-25° C., 25 days) was 25.0 µg/mL and the “Stability of Vitamin Es in AB White” value ([1]; stored at 21-25° C., 26 days) was 24.8 µg/mL. The “Stability of Vitamin Es in AB White” value ([1]; stored at 21-25° C., 29 days) was 26.1 µg/mL, the “Stability of Vitamin Es in AB White” value ([1]; stored at 21-25° C., 30 days) was 23.9 µg/mL and the “Stability of Vitamin Es in AB White” value ([1]; stored at 21-25° C., 60 days) was 25.0 µg/mL. The “Stability of Vitamin Es in AB White” value ([1]; stored at 21-25° C., 90 days) was 23.7 µg/mL, the “Stability of Vitamin Es in AB White” value ([1]; stored at 21-25° C., 120 days) was 24.7 µg/mL and the “Stability of Vitamin Es in AB White” value ([1]; stored at 21-25° C., 150 days) was 24.4 µg/mL. For the same molecule, the “Stability of Vitamin Es in AB White” value ([1]; stored at 21-25° C., 180 days) was 23.6 µg/mL, the “Stability of Vitamin Es in AB White” value ([1]; stored at 21-25° C., 210 days) was 23.1 µg/mL and the “Stability of Vitamin Es in AB White” value ([1]; stored at 21-25° C., 240 days) was 24.2 µg/mL. The “Stability of Vitamin Es in AB White” value ([1]; stored at 21-25° C., 270 days) was 23.1 µg/mL, the “Stability of Vitamin Es in AB White” value ([1]; stored at 21-25° C., 300 days) was 24.2 µg/mL and the “Stability of Vitamin Es in AB White” value ([1]; stored at 21-25° C., 330 days) was 24.4 µg/mL. The “Stability of Vitamin Es in AB White” value ([1]; stored at 21-25° C., 360 days) was 23.6 µg/mL, the “Stability of Vitamin Es in AB White” value ([1]; stored at 21-25° C., 390 days) was 23.1 µg/mL and the “Stability of Vitamin Es in AB White” value ([1]; stored at 21-25° C., 420 days) was 22.8 µg/mL. The “Stability of Vitamin Es in AB White” value ([1]; stored at 21-25° C., 450 days) was 23.4 µg/mL, the “Stability of Vitamin Es in AB White” value ([1]; stored at 21-25° C., 480 days) was 21.6 µg/mL and the “Stability of Vitamin Es in AB White” value ([1]; stored at 21-25° C., 510 days) was 21.9 µg/mL. For the same molecule, the “Stability of Vitamin Es in AB White” value ([1]; stored at 21-25° C., 540 days) was 22.0 µg/mL, the “Stability of Vitamin Es in AB White” value ([1]; stored at 21-25° C., 570 days) was 22.2 µg/mL and the “Stability of α-tocopherol in Nanoemulsion Concentrate 3” value (from here on “Stability of α-tocopherol”) ([2]; Refrigerated (2-4° C.), 0 days) was 0.25 mg/mL. The “Stability of α-tocopherol” value ([2]; Refrigerated (2-4° C.), 7 days) was 0.25 mg/mL, the “Stability of α-tocopherol” value ([2]; Refrigerated (2-4° C.), 28 days) was 0.23 mg/mL and the “Stability of α-tocopherol” value ([2]; Refrigerated (2-4° C.), 60 days) was 0.26 mg/mL. For the same molecule, the “Stability of α-tocopherol” value ([2]; Refrigerated (2-4° C.), 120 days) was 0.26 mg/mL, the “Stability of α-tocopherol” value ([2]; Refrigerated (2-4° C.), 150 days) was 0.23 mg/mL and the “Stability of α-tocopherol” value ([2]; Refrigerated (2-4° C.), 180 days) was 0.27 mg/mL. The “Stability of α-tocopherol” value ([2]; Room Temperature (21-25° C.), 0 days) was 0.25 mg/mL, the “Stability of α-tocopherol” value ([2]; Room Temperature (21-25° C.), 7 days) was 0.21 mg/mL and the “Stability of α-tocopherol” value ([2]; Room Temperature (21-25° C.), 28 days) was 0.22 mg/mL. The “Stability of α-tocopherol” value ([2]; Room Temperature (21-25° C.), 60 days) was 0.23 mg/mL, the “Stability of α-tocopherol” value ([2]; Room Temperature (21-25° C.), 120 days) was 0.20 mg/mL and the “Stability of α-tocopherol” value ([2]; Room Temperature (21-25° C.), 150 days) was 0.21 mg/mL. For the same molecule, the “Stability of α-tocopherol” value ([2]; Room Temperature (21-25° C.), 180 days) was 0.17 mg/mL, the “stability in Nanoemulsion Concentrate 3 (in words)” value ([2]; after 180 days stored at 21-25° C.) was “some slight degradation” and the “stability in Nanoemulsion Concentrate 3 (in words)” value ([2]; stored at 2-4° C., 180 days) was “high degree of stability”.
